Tests used:
[1] = target: T1, EcRecA (Escherichia coli, UniProt P0A7G6); conditions: gel shift; 0, 10, 100 μM
[2] = tested on: E. coli strain ATCC25922; assay: Antibiotic sensitivity assay (CFUs/ml), E. coli; type: cell-based, Escherichia coli
Experimental: Bacterial cultures were diluted to 10^5 cells/mL in LB broth (ATCC25922) or MH broth (ATCC27853, ATCC29212, ATCC29213). Antibiotics and/or phthalocyanines were added at indicated concentrations and the culture was incubated at 37° C. Samples were collected at 0, 24, 48, and 72 hours and plated on LB agar (ATCC25922) or tryptic soy blood agar (ATCC27853, ATCC29212, ATCC29213) to determine CFUs/ml.
The ability of 4,4-Fe-PcTs and 3,4-Cu-PcTs to potentiate the activity of ciprofloxacin (abbreviated “CFX”) was tested. Ciprofloxacin inhibits DNA gyrase in bacteria, causing accumulation of double-stranded DNA breaks (DSBs) and inducing the SOS response. The inventors characterized the ability of 4,4-Fe-PcTs and 3,4-Cu-PcTs to potentiate the activity of ciprofloxacin in the pathogenic E. coli strain ATCC25922, which was used previously by Cirz et al. to evaluate the role of SOS response proteins in antibiotic resistance.

[3] = tested on: SOS response (E. coli strain SS996); assay: SOS induction, GFP regulated by the sulA SOS promoter, flow cytometry; type: cell-based, Escherichia coli; conditions: 4,4-Fe-PcTs 25 μM, three hours
Experimental: To confirm that the bactericidal antibiotic potentiating activity of 4,4-Fe-PcTs was correlated with reduced SOS induction, SOS induction in the E. coli strain SS996 was monitored. This strain contains a green fluorescent protein (GFP) regulated by the sulA SOS promoter.
SS996 cultures were grown to an optical density at 600 nm (OD600) of 0.3. For cultures treated with 4,4-Fe-PcTs, the 4,4-Fe-PcTs was added to give a concentration of 25 μM and the culture was incubated for three hours at 37° C. Antibiotics were then added to yield concentrations of 2.5 μM (CFX), 40 μM (AMP), 43 μM (KAN), 21 μM (TET), 46 μM (CAM), or 808 μM (SPECT). Samples (˜10^6 cells) were taken immediately before the addition of antibiotics (time zero) and every hour for three hours. Samples were washed once in PBS, and resuspended in PBS prior to analysis by flow cytometry. GFP expression was monitored using flow cytometer (Beckman Coulter, Inc.) with a 488 nm argon laser and a 515-545 nm emission. Flow cytometry data were analyzed using Flowjo (Tree Star, Inc.).

[4] = tested on: ATCC25922 E. coli; assay: Ciprofloxacin resistance assay and reconstruction assay (in vitro mutagenesis); type: cell-based, Escherichia coli
Experimental: An in vitro mutagenesis assay [1] was used to measure the ability of 4,4-Fe-PcTs to block the acquisition of ciprofloxacin-induced resistance in ATCC25922 E. coli. ATCC25922 cells were plated on media containing ciprofloxacin in the presence or absence of 4,4-Fe-PcTs and cultured for 10 days. Colonies that appeared early in the assay (days 1 and 2) are believed to arise from pre-existing ciprofloxacin resistance mutations [1]. Colonies that appear later in the incubation (days 3 to 8) are due to ciprofloxacin resistance mutations acquired during exposure to ciprofloxacin or pre-existing mutations with a slow growth phenotype [1].
To distinguish between these two types of mutants, a reconstruction assay that tests for the time it takes for colonies to appear in the presence of ciprofloxacin was used. Colonies that appear at least two days faster than they appeared in the original ciprofloxacin mutagenesis screen were classified as colonies that acquire resistance after exposure to ciprofloxacin [1]. Colonies that appeared in the same number of days as in the ciprofloxacin resistance assay were classified as colonies with pre-existing mutations [1].
Twenty-five independent colonies of ATCC2592 were used to inoculate 25 LB broth cultures that were incubated at 37° C. for 25 hours. Viable cell counts in these cultures were determined by plating serial dilutions onto LB agar plates. One hundred microliters from each culture (˜10^8 cells) were plated in duplicate on LB agar containing ciprofloxacin (CFX) (40 nM) or ciprofloxacin (40 nM) and 4,4-Fe-PcTs (25 μM) (CFX+4,4-Fe-PcTs). Three additional 100 μL aliquots from three cultures were also plated on the same media to determine the number of viable cells per day. At 24 hour intervals, visible colonies were counted, removed from the plate, and stored at −80° C. for later use in the reconstruction assay and sequencing. Every 24 hours, in parallel with the resistance assay, small plugs of agar between visible colonies were excised from resistance assay plates. Agar plugs were homogenized in M9 buffer. Dilutions were plated in duplicate on LB plates to determine the total number of viable cells per day. The cells were also plated on LB containing CFX (40 nM) to determine if any CFX-resistant colonies remained after excision [1].
Reconstruction assays were used to determine whether ciprofloxacin resistant colonies were due to post-exposure mutation or due to mutation prior to ciprofloxacin exposure. Ciprofloxacin resistant clones isolated from the resistance assay were grown to saturation in LB media in 96 well plates. Cultures were then replica-plated in duplicate using a 96-pin replicator on LB plates to confirm viability and LB plates containing ciprofloxacin (40 nM) to confirm ciprofloxacin resistance. Ciprofloxacin-resistant clones that were isolated in the presence 4,4-Fe-PcTs were replica plated on LB and LB containing 4,4-Fe-PcTs (25 μM) and ciprofloxacin (40 nM). Clones that were resistant before ciprofloxacin exposure were defined as clones that formed colonies on the ciprofloxacin-containing media in the same number of days in the reconstruction assay as in the original resistance assay. Clones that mutated after exposure to ciprofloxacin were defined as clones that formed colonies earlier than in the original resistance assay [1].
The rate of ciprofloxacin resistance was defined as the number of ciprofloxacin-resistant mutants per viable cell that evolve as a function of time. […]

[5] = target: T1, EcRecA; conditions: gel shift; 0, 10, 100 μM; remark: listed apart in the source
Experimental: EcRecA (4 μM), a 1.0-kb double-stranded DNA (dsDNA) PCR product (12 μM in base pairs), and indicated concentrations of 4,4-Fe-PcTs or 3,4-Cu-PcTs were incubated in binding buffer (5 mM MgAc2, 50 mM Tris-Hepes at pH 7.6) for 10 minutes at 37° C. EcRecA bound (slower migrating) and unbound dsDNA were resolved using a 1.0% agarose gel. The gel was stained with ethidium bromide and the fluorescence emission in the gel was recorded using a Kodak GelLogic 200 system.

[6] = tested on: ATCC25922 cells; assay: Neutropenic murine bacterial thigh infection model; type: in vivo, Escherichia coli
Experimental: Six-eight week-old, specific-pathogen-free, female CD-1 mice (weight, 25-35 g) were rendered neutropenic by intraperitoneal injection with 150 mg/kg cylcophosphamide (Sigma) four days before infection and 100 mg/kg cyclophosphamide 24 hours before infection. LB broth cultures inoculated from fresh ATCC25922 colonies and cells were grown to the log phase (OD600 of approximately 0.3) and diluted 1:1000 in LB broth. Thigh infections were produced by injecting 50 μl (approximately 10^6 CFUs) of diluted cultures into halothane-anesthetized mice. One group of mice was administrated inteperitoneal injection of 4,4-Fe-PcTs in conjunction with the second dose of cyclophosphamide (24 hours prior infection) (4,4-Fe-PcTs (pre)+CFX). Starting two hours after infection (defined as time zero), mice were administered subcutaneous injections of either 1 mg/kg ciprofloxacin alone (CFX) or co-treatment of 1 mg/kg ciprofloxacin with interperitoneal injection of 10 mg/kg 4,4-Fe-PcTs (4,4-Fe-PcTs+CFX and 4,4-Fe-PcTs (pre)+CFX) every 24 hours for 3 days. After 48 and 72 hours, three mice from each group were sacrificed, and their thighs removed and homogenized to determine the number of viable bacterial cells for both ciprofloxacin-sensitive and ciprofloxacin-resistant ATCC25922 cells. Serial dilutions of homogenates of the infected thigh were plated on LB agar (CFX Sensitive) and LB agar plates containing ciprofloxacin (40 nM) (CFX Resistant) to count viable cells for each of the three treatment groups.

[7] = target: T1, EcRecA; conditions: compound 10 μM; poly-(dT)36-stimulated; relative to reaction without inhibitor
Experimental: An ATPase assay [18] was used to screen a set of commercially available anionic, aromatic molecules for inhibitors of RecA ATPase activity. The release of inorganic phosphate by ATP hydrolysis was monitored using a Malachite Green phosphate assay [18]. The ssDNA-dependent ATPase reaction contained 1 μM EcRecA, 6 μM ssDNA (poly-(dT)36, concentration in nucleotides), 5 mM ATP, 50 mM Tris-Hepes buffer at pH 7.4, 10 mM MgCl2, 0.1% v/v 2-mercaptoethanol, and indicated amounts of 4,4-Fe-PcTs or 3,4-Cu-PcTs. Phosphate levels were measured by transferring 25 μl of ATPase reaction to 475 μl of malachite green phosphate assay, which contained 0.033% w/v Malachite Green, 1.3% w/v ammonium molybdate. 1.0 M HCl was used to monitor the release of inorganic phosphate by ATP hydrolysis [18]. The green complex formed between Malachite Green, molybdate, and free orthophosphate was measured by recording the absorbance at 620 nm.
Results are the average of two independent experiments where the deviation was less than 10%.

[8] = tested on: ATCC29522 cells; assay: Biofilm formation assay (crystal violet); type: cell-based, Escherichia coli; conditions: Fe-PcTs 25 μM; ciprofloxacin 40 nM; plastic surface, 96-well plate
Experimental: Biofilm formation on a plastic surface was analyzed using a 96-well plate (Falcon) as described previously. ATCC29522 cells were diluted in LB broth to 1×10^5 CFUs/ml. A 100 μl aliquot of cells was added to each well in the plate. Ciprofloxacin (CFX) was then added at a final concentration of 40 nM to each well and plates were incubated at 37° C. for 20 hours. Wells were aspirated and washed three times with 150 μl of PBS. Wells were stained with 120 μl of 0.1% crystal violet (Fisher) for 20 minutes. The crystal violet stain was aspirated and wells were washed three times with 150 μl of PBS. The plate was air-dried and the dye bound to adherent cells was resolubilized with 150 μl of 30% (v/v) glacial acetic acid (Fisher). The plate was incubated at room temperature for 20 minutes with shaking. The biofilm formation was quantified by measuring the OD600 nm using a plate reader.

[9] = tested on: mouse bone marrow cells; assay: Viability of mouse bone marrow cells; type: cell-based; conditions: maximum concentration tested (100 μM); 24 and 48 hours
Excerpt: Error bars represent the standard deviation from three independent experiments.

T1 sequence (P0A7G6 whole entry): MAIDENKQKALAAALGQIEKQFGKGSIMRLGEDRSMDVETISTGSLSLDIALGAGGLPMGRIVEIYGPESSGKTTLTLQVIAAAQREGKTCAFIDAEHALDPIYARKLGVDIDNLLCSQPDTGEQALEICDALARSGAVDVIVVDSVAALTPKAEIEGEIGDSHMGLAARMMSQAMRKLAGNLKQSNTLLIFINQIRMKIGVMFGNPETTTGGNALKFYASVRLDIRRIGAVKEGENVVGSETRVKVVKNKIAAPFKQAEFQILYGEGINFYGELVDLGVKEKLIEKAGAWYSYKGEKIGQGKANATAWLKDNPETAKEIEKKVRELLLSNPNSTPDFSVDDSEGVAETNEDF

iron (III) phthalocyanine-4,4′,4″,4′″-tetrasulfonic acid [4,4-Fe-PcTs]
inhibition of RecA ssDNA-binding activity [1]: in the micromolar range
CFUs on co-treatment with ampicillin ([2]; 4,4-Fe-PcTs 25 μM + AMP 40 μM, after 24 hours): eliminating all CFUs
effect on activity of chloramphenicol (bacteriostatic) ([2]; 4,4-Fe-PcTs 25 μM + CAM 46 μM): very slight effect
CFUs on co-treatment with ciprofloxacin ([2]; 4,4-Fe-PcTs 25 μM + CFX 40 nM, after 24 hours): eliminating all CFUs
CFUs on co-treatment with kanamycin ([2]; 4,4-Fe-PcTs 25 μM + KAN 43 μM, after 24 hours): eliminating all CFUs
effect on activity of spectinomycin (bacteriostatic) ([2]; 4,4-Fe-PcTs 25 μM + SPECT 808 μM): very slight effect
effect on activity of tetracycline (bacteriostatic) ([2]; 4,4-Fe-PcTs 25 μM + TET 21 μM): very slight effect
potentiation of ciprofloxacin activity ([2]; ciprofloxacin 40 nM): potentiated the activity of ciprofloxacin
colony forming units (CFUs) ([2]; co-treated with ciprofloxacin 40 nM and compound at concentrations above 25 μM): no colony forming units (CFUs) were observed
effect on ampicillin-induced SOS response (GFP) ([3]; AMP 40 μM): reduced the ability
effect on ciprofloxacin-induced SOS response (GFP) ([3]; CFX 2.5 μM): reduced the ability
total number of viable and ciprofloxacin-resistant cells relative to ciprofloxacin alone ([4]; 4,4-Fe-PcTs 25 μM + ciprofloxacin 40 nM): reduced
ciprofloxacin resistant mutants over time ([4]; cells treated with Fe-PcTs and ciprofloxacin): no ciprofloxacin resistant mutants were observed after day 4
ciprofloxacin-resistant colonies caused by pre-existing mutations ([4]; ciprofloxacin (40 nM) and 4,4-Fe-PcTs (25 μM)): 60%
inhibition of RecA dsDNA-binding activity [5]: in the micromolar range
potentiation of ciprofloxacin by pretreatment versus co-treatment only ([6]; 4,4-Fe-PcTs given 24 hours prior to infection plus co-treatment): potentiated the activity of ciprofloxacin more
ciprofloxacin-resistant cells in thigh ([6]; mice co-treated with ciprofloxacin 1 mg/kg and 4,4-Fe-PcTs 10 mg/kg i.p. (with or without pretreatment)): no ciprofloxacin resistant cells were observed
inhibition of EcRecA ATPase activity [7]: high degree of inhibition
effect on ciprofloxacin-induced biofilm formation [8]: reduced the ability of ciprofloxacin to induce
toxicity to mouse bone marrow [9]: not toxic
